Data from patent publication US20030125253A1, “Novel protein, process for producing the same and use therof” (priority 2002, published 2003).

Tests used:
Format in all cases: cell-based, human
SSP1 mRNA in HepG2 cell = assay: Change of SSP1 mRNA expression in treated HepG2 cells (TaqMan PCR); details: 24 hours in serum free D-MEM medium with the agent, 25-OH 5 μg/ml, βVLDL 100 μg-TC/ml, HPβCD 5 mM, 10% FBS
Protocol: For conducting more detailed analysis of SSP1 expression, TaqMan PCR conditions were set. The primers used were Upper Primer (SEQ ID NO: 54) and Lower Primer (SEQ ID NO: 55), and the probe used for detection was shown by SEQ ID NO: 56. In TaqMan PCR, 250 nM of Upper Primer, 250 nM of Lower Primer, 75 nM of the probe and template DNA were mixed with TaqMan Universal Mixture, and SSP1 gene was quantified by real time PCR of 40 cycle of 15 seconds at 95° C. and 60 seconds at 60° C.
After HepG2 cell was treated as shown in FIG. 7 for one day, RNA was extracted to perform a reverse transcription using oligo-dT as a primer. Then, change in the expression amount of SSP1 mRNA was analyzed using the quantification system of expression amount of SSP1 mRNA as shown in Example 6. Specifically, HepG2 cells were cultured on a 24-well plate, and incubated for 24 hours in a serum free D-MEM medium in the presence of 10% FBS (10% FBS), 5 μg/ml of 25-hydroxycholesterol (25-OH), 100 μg-TC/ml of rabbit βVLDL (βVLDL), 1 μM of Atrvastatin (ATOS), 5 mM hydroxypropyl-β-cyclodextiin (HPβCD), 10 μM progesterone (Progesterone) or 100 μM dibutyl-cyclic AMP (db-cAMP). The expression amount of SSP1 mRNA in RNA extracted from these cells was measured as a rate (%) to GAPDH mRNA measured as the internal standard.

SSP2 mRNA in IMR-32 cell = assay: Differentiation-dependent induction of SSP2 mRNA expression in IMR-32 cells (TaqMan PCR); details: 10 μM BrDU, cultured for 14 days, RNA at 7 and 14 days, cells differentiated to neuron in morphology
Protocol: For conducting more detailed analysis of SSP2 expression, TaqMan PCR conditions were set. The primers used were Upper Primer (SEQ ID NO: 57) and Lower Primer (SEQ ID NO: 58), and the probe used for detection was shown by SEQ ID NO: 59. In TaqMan PCR, 250 nM of Upper Primer, 250 nM of Lower Primer, 75 nM of the probe and template DNA were mixed with TaqMan Universal Mixture, and SSP2 gene was quantified by real time PCR of 40 cycle of 15 seconds at 95° C. and 60 seconds at 60° C. IMR-32 cells were cultured overnight at […] cells/well (6 well plate), and cultured for 14 days under four different conditions of 1 mM dibutyl cycle AMP (db-cAMP), 10 μM Bromo deoxyuridine (BrDU), 1 mM db-cAMP/10 μM BrDU and no differentiation-inducing agent. RNA was extracted from cells at 7 days and 14 days, then, SSP2 mRNA was quantified by TaqMan PCR. Induction of expression of SSP2 mRNA was recognized in cells which were differentiated to neuron in terms of morphology by 10 μM BrDU (FIG. 8).

[1] = tested on: stable SSP1-overexpressing HepG2 cell; assay: ApoB lipoprotein secretion in stable SSP1-overexpressing HepG2 cells (sandwich EIA); details: SSP1 stable expression HepG2 cell strains vs parent HepG2, 24 hours, 5% LPDS + oleate (BSA complex)
Protocol: SSP1 gene was subcloned into pcDNA3.1(+)-myc vector (Invitrogen), and the thus obtained expression plasmid for eucaryotic cell having the C-terminal Myc-tag was transfected into HepG2 cells by a lipofection method, and these cells were cultured in the presence of 500 ug/ml G418 to obtain G418-resistant strains. From these strains, 4 stable cell strains highly expressing SSP1 mRNA were obtained using the quantification, of expression amount of SSP1 mRNA by TaqMan PCR. A gene encoding amino acid no. 33-273 of SSP1 protein was subcloned into pET 21(+) vector (Novagen), and using the SSP1 partial protein produced in Escherichia coli as an antigen, a polyclonal antibody was prepared according to an ordinary method. The amino acid sequence of the antigen protein is shown by SEQ ID NO: (antigen AP-1). Using this antibody (AP-1), the expression of SSP1 protein in cell-extract of the four stable SSP1-expressing cell strains was investigated by a Western blotting method. […] For quantification of ApoB lipoprotein, a sandwich EIA method using an anti-human apoB goat polyclonal antibody and an anti-human apoB mouse monoclonal antibody was carried out. In the quantification, human LDL was used as a standard substance, and the concentration of ApoB lipoprotein secreted in the supernatant was represented as an equivalent human LDL value. […]

**Q.** With C[C@H](CCCC(C)(C)O)[C@H]1CC[C@H]2[C@@H]3CC=C4C[C@@H](O)CC[C@]4(C)[C@H]3CC[C@]12C [25OH, 25-hydroxycholesterol] as the molecule, how does the “change in the expression amount of SSP1 mRNA (rate to GAPDH mRNA)” value (SSP1 mRNA in HepG2 cell) read?
**A.** decrease

**Q.** O=c1[nH]c(=O)n([C@H]2C[C@H](O)[C@@H](CO)O2)cc1Br [BrDU, Bromo deoxyuridine] was tested. Which “induction of expression of SSP2 mRNA” value (SSP2 mRNA in IMR-32 cell) did it give?
**A.** Induction

**Q.** Which “activity to promote apoB lipoprotein secretion by addition of oleic acid” value [1] does the source give for CCCCCCCC/C=C\CCCCCCCC(=O)O [oleic acid] here?
**A.** disappeared

**Q.** hydroxypropyl-β-cyclodextiin [HPβCD] was tested. Which “change in the expression amount of SSP1 mRNA (rate to GAPDH mRNA)” value (SSP1 mRNA in HepG2 cell) did it give?
**A.** increase
